Measurements published in PubChem BioAssay (NCI).
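In this assay, cells in 96-well plates receive the compound at five concentrations for 48 hours. Endpoints are linearly interpolated between the surrounding concentrations. Here, GI50 denotes the concentration required for 50% inhibition of growth. Definition used: TGI = concentration required for complete inhibition of growth.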

Legend:
Experiment in all cases: growth of human tumour cells (NCI), 48 h
OVCAR-8 ovarian = tested on: OVCAR-8 ovarian
786-0 renal = tested on: 786-0 renal
BT-549 breast = tested on: BT-549 breast
OVCAR-3 ovarian = tested on: OVCAR-3 ovarian
NCI-H460 lung = tested on: NCI-H460 lung
HT29 colon = tested on: HT29 colon
HOP-62 NSCLC = tested on: HOP-62 NSCLC
RXF 393 renal = tested on: RXF 393 renal
UACC-62 melanoma = tested on: UACC-62 melanoma
HL-60(TB) leukemia = tested on: HL-60(TB) leukemia

CCOC(=O)C1=C(C)N(N)C(=S)NC1c1ccc(C)cc1 (configuration not stated)
GI50 (OVCAR-8 ovarian): > 100 µM
TGI (OVCAR-8 ovarian): > 100 µM
GI50 (786-0 renal): > 100 µM
TGI (786-0 renal): > 100 µM
TGI (BT-549 breast): 9.16 µM
GI50 (OVCAR-3 ovarian): 22.4 µM
TGI (OVCAR-3 ovarian): > 100 µM
GI50 (NCI-H460 lung): 24.4 µM
TGI (NCI-H460 lung): > 100 µM
GI50 (HT29 colon): 26 µM
TGI (HT29 colon): > 100 µM
GI50 (HOP-62 NSCLC): > 100 µM
TGI (HOP-62 NSCLC): > 100 µM
GI50 (RXF 393 renal): 6.44 µM
TGI (RXF 393 renal): > 100 µM
GI50 (UACC-62 melanoma): 23.3 µM
TGI (UACC-62 melanoma): > 100 µM

CCOC(=O)N1CCN(C(=O)c2ccc(C(F)(F)F)nc2Nc2cc(Cl)ccc2C)CC1
GI50 (OVCAR-8 ovarian): 30.2 µM
TGI (OVCAR-8 ovarian): > 100 µM
GI50 (786-0 renal): 41.1 µM
TGI (786-0 renal): > 100 µM
GI50 (BT-549 breast): 19.2 µM
TGI (BT-549 breast): 73.2 µM
GI50 (OVCAR-3 ovarian): 8.85 µM
TGI (OVCAR-3 ovarian): 47.2 µM
GI50 (NCI-H460 lung): 16.2 µM
TGI (NCI-H460 lung): 33.6 µM
GI50 (HT29 colon): 13.2 µM
TGI (HT29 colon): 34.8 µM
GI50 (HOP-62 NSCLC): 25.8 µM
TGI (HOP-62 NSCLC): > 100 µM
GI50 (RXF 393 renal): 14 µM
TGI (RXF 393 renal): 65.2 µM
GI50 (HL-60(TB) leukemia): 12.1 µM
TGI (HL-60(TB) leukemia): 38 µM
GI50 (UACC-62 melanoma): 10 µM
TGI (UACC-62 melanoma): 25.6 µM

Cc1ccc(Nc2nc(N)c(C(=O)c3ccc(C#N)cc3)s2)cc1
GI50 (OVCAR-8 ovarian): 0.644 µM
TGI (OVCAR-8 ovarian): > 100 µM
GI50 (786-0 renal): 0.529 µM
TGI (786-0 renal): > 49.8 µM
GI50 (BT-549 breast): 0.475 µM
TGI (BT-549 breast): > 60.9 µM
GI50 (OVCAR-3 ovarian): 0.319 µM
TGI (OVCAR-3 ovarian): 5.43 µM
GI50 (NCI-H460 lung): 0.389 µM
TGI (NCI-H460 lung): > 100 µM
GI50 (HT29 colon): 0.25 µM
TGI (HT29 colon): > 90.2 µM
GI50 (HOP-62 NSCLC): 0.503 µM
TGI (HOP-62 NSCLC): > 70.3 µM
GI50 (RXF 393 renal): 0.398 µM
TGI (RXF 393 renal): 7.44 µM
GI50 (HL-60(TB) leukemia): 0.288 µM
TGI (HL-60(TB) leukemia): > 61.7 µM
GI50 (UACC-62 melanoma): 0.416 µM
TGI (UACC-62 melanoma): > 100 µM

O=C(N/N=C\c1cc(Br)ccc1O)c1ccncc1
GI50 (OVCAR-8 ovarian): 1.38 µM
TGI (OVCAR-8 ovarian): > 100 µM
GI50 (786-0 renal): 2.46 µM
TGI (786-0 renal): > 100 µM
GI50 (BT-549 breast): 2.57 µM
TGI (BT-549 breast): 40.8 µM
GI50 (OVCAR-3 ovarian): 0.435 µM
TGI (OVCAR-3 ovarian): 39.8 µM
GI50 (NCI-H460 lung): 1.25 µM
TGI (NCI-H460 lung): > 100 µM
GI50 (HT29 colon): 5.7 µM
TGI (HT29 colon): > 100 µM
GI50 (HOP-62 NSCLC): 1.57 µM
TGI (HOP-62 NSCLC): 66.2 µM
GI50 (RXF 393 renal): 1.89 µM
TGI (RXF 393 renal): > 100 µM
GI50 (HL-60(TB) leukemia): 1.28 µM
TGI (HL-60(TB) leukemia): 5.57 µM
GI50 (UACC-62 melanoma): 1.45 µM
TGI (UACC-62 melanoma): 7.4 µM

Cc1n(Cc2ccc3ccccc3c2)cc[n+]1Cc1ccc2ccccc2c1
GI50 (OVCAR-8 ovarian): 1.21 µM
TGI (OVCAR-8 ovarian): 10.3 µM
GI50 (786-0 renal): 2.25 µM
TGI (786-0 renal): 8.52 µM
GI50 (BT-549 breast): 0.929 µM
TGI (BT-549 breast): 3.01 µM
GI50 (OVCAR-3 ovarian): 0.521 µM
TGI (OVCAR-3 ovarian): 2.06 µM
GI50 (NCI-H460 lung): 1.59 µM
TGI (NCI-H460 lung): 10.7 µM
GI50 (HT29 colon): 0.521 µM
TGI (HT29 colon): 3.02 µM
GI50 (HOP-62 NSCLC): 1.6 µM
TGI (HOP-62 NSCLC): 8.35 µM
GI50 (RXF 393 renal): 0.857 µM
TGI (RXF 393 renal): 3.4 µM
GI50 (HL-60(TB) leukemia): 0.427 µM
TGI (HL-60(TB) leukemia): 2.01 µM
GI50 (UACC-62 melanoma): 0.843 µM
TGI (UACC-62 melanoma): 2.42 µM

COc1cc(NC(C)CCCN)c2nccc(C)c2c1OC (configuration not stated)
GI50 (OVCAR-8 ovarian): 14.5 µM
TGI (OVCAR-8 ovarian): 42.3 µM
GI50 (786-0 renal): 20.3 µM
TGI (786-0 renal): 55.7 µM
GI50 (BT-549 breast): 16 µM
TGI (BT-549 breast): 30.2 µM
GI50 (OVCAR-3 ovarian): 3.17 µM
TGI (OVCAR-3 ovarian): 10.1 µM
GI50 (NCI-H460 lung): 14.1 µM
TGI (NCI-H460 lung): 29.5 µM
GI50 (HT29 colon): 4.72 µM
TGI (HT29 colon): 20.9 µM
GI50 (HOP-62 NSCLC): 11.1 µM
TGI (HOP-62 NSCLC): 28 µM
GI50 (RXF 393 renal): 17.1 µM
TGI (RXF 393 renal): 40.3 µM
GI50 (HL-60(TB) leukemia): 4.56 µM
TGI (HL-60(TB) leukemia): 16.8 µM
GI50 (UACC-62 melanoma): 16.6 µM
TGI (UACC-62 melanoma): 32.1 µM

CC(=O)Oc1ccc(Nc2c3ccccc3nc3ccccc23)cc1
GI50 (OVCAR-8 ovarian): 1.07 µM
TGI (OVCAR-8 ovarian): 4.14 µM
GI50 (786-0 renal): 1.89 µM
TGI (786-0 renal): 6.4 µM
GI50 (BT-549 breast): 2.77 µM
TGI (BT-549 breast): 13.5 µM
GI50 (OVCAR-3 ovarian): 2.14 µM
TGI (OVCAR-3 ovarian): 6.48 µM
GI50 (NCI-H460 lung): 0.295 µM
TGI (NCI-H460 lung): 1.3 µM
GI50 (HT29 colon): 1.1 µM
TGI (HT29 colon): 3.53 µM
GI50 (HOP-62 NSCLC): 0.971 µM
TGI (HOP-62 NSCLC): 3.48 µM
GI50 (RXF 393 renal): 1.08 µM
TGI (RXF 393 renal): 2.93 µM
GI50 (HL-60(TB) leukemia): 0.705 µM
TGI (HL-60(TB) leukemia): 6.14 µM
GI50 (UACC-62 melanoma): 1.1 µM
TGI (UACC-62 melanoma): 2.61 µM

COC(=O)[C@@H](NC(=O)[C@@H](OC)[C@@H]1Cc2cc3cc(OC4CC(OC5CC(O)C(O)C(C)O5)C(O)C(C)O4)c(C)c(O)c3c(O)c2C(=O)[C@H]1OC1CC(OC2CC(OC3CC(C)(O)C(O)C(C)O3)C(O)C(C)O2)C(O)C(C)O1)C(C)C (some centres not stated)
GI50 (OVCAR-8 ovarian): 0.15 µM
TGI (OVCAR-8 ovarian): > 32.5 µM
GI50 (786-0 renal): 0.175 µM
TGI (786-0 renal): 5.98 µM
GI50 (BT-549 breast): 0.184 µM
TGI (BT-549 breast): 2.63 µM
GI50 (OVCAR-3 ovarian): 0.165 µM
TGI (OVCAR-3 ovarian): > 32.5 µM
GI50 (NCI-H460 lung): 0.111 µM
TGI (NCI-H460 lung): 5.7 µM
GI50 (HT29 colon): 0.129 µM
TGI (HT29 colon): > 32.5 µM
GI50 (HOP-62 NSCLC): 0.0824 µM
TGI (HOP-62 NSCLC): > 32.5 µM
GI50 (RXF 393 renal): 0.0822 µM
TGI (RXF 393 renal): 0.427 µM
GI50 (HL-60(TB) leukemia): 0.348 µM
TGI (HL-60(TB) leukemia): > 32.5 µM
GI50 (UACC-62 melanoma): 0.0731 µM
TGI (UACC-62 melanoma): 0.409 µM

COc1ccc(-c2cc(-c3cccn3C)c(C#N)c(N)n2)cc1OC
GI50 (OVCAR-8 ovarian): > 100 µM
TGI (OVCAR-8 ovarian): > 100 µM
GI50 (786-0 renal): > 100 µM
TGI (786-0 renal): > 100 µM
GI50 (BT-549 breast): 64 µM
TGI (BT-549 breast): > 100 µM
GI50 (OVCAR-3 ovarian): > 100 µM
TGI (OVCAR-3 ovarian): > 100 µM
GI50 (NCI-H460 lung): > 100 µM
TGI (NCI-H460 lung): > 100 µM
GI50 (HT29 colon): > 100 µM
TGI (HT29 colon): > 100 µM
GI50 (RXF 393 renal): > 100 µM
TGI (RXF 393 renal): > 100 µM
GI50 (HL-60(TB) leukemia): 19.6 µM
TGI (HL-60(TB) leukemia): > 100 µM
GI50 (UACC-62 melanoma): 86.3 µM
TGI (UACC-62 melanoma): > 100 µM

CCN(CC)CC(C)(C)C(=O)/C=C/c1ccc(Cl)c(Cl)c1
GI50 (OVCAR-8 ovarian): 1.88 µM
TGI (OVCAR-8 ovarian): 3.91 µM
GI50 (786-0 renal): 1.62 µM
TGI (786-0 renal): 3.04 µM
GI50 (BT-549 breast): 1.72 µM
TGI (BT-549 breast): 3.12 µM
GI50 (OVCAR-3 ovarian): 1.53 µM
TGI (OVCAR-3 ovarian): 2.88 µM
GI50 (NCI-H460 lung): 2.07 µM
TGI (NCI-H460 lung): 4.36 µM
GI50 (HOP-62 NSCLC): 1.75 µM
TGI (HOP-62 NSCLC): 3.29 µM
GI50 (RXF 393 renal): 1.59 µM
TGI (RXF 393 renal): 3.1 µM
GI50 (HL-60(TB) leukemia): 1.07 µM
TGI (HL-60(TB) leukemia): 6.59 µM
GI50 (UACC-62 melanoma): 1.66 µM
TGI (UACC-62 melanoma): 3.59 µM

N#CC1(C2SCCS2=O)C2=C(C(=O)c3ccccc3C2=O)N2CCCC21 (configuration not stated)
TGI (OVCAR-8 ovarian): 7.83 µM
TGI (786-0 renal): 18.7 µM
TGI (BT-549 breast): 4.3 µM
TGI (OVCAR-3 ovarian): 2.04 µM
TGI (NCI-H460 lung): 11.8 µM
TGI (HT29 colon): 14.2 µM
TGI (HOP-62 NSCLC): 14.9 µM
TGI (RXF 393 renal): 10.9 µM
TGI (HL-60(TB) leukemia): 6.79 µM
TGI (UACC-62 melanoma): 6.54 µM

CCN(CC)CCOc1ccc(/C(=C(\C)c2ccc(F)c(OC)c2)c2ccc(Cl)cc2)cc1
GI50 (OVCAR-8 ovarian): 2.58 µM
TGI (OVCAR-8 ovarian): 5.37 µM
GI50 (786-0 renal): 2.7 µM
TGI (786-0 renal): 5.11 µM
GI50 (BT-549 breast): 2.67 µM
TGI (BT-549 breast): 5.13 µM
GI50 (OVCAR-3 ovarian): 2.26 µM
TGI (OVCAR-3 ovarian): 4.6 µM
GI50 (NCI-H460 lung): 2.07 µM
TGI (NCI-H460 lung): 4.24 µM
GI50 (HT29 colon): 0.582 µM
TGI (HT29 colon): 2.87 µM
GI50 (HOP-62 NSCLC): 2.51 µM
TGI (HOP-62 NSCLC): 4.99 µM
GI50 (RXF 393 renal): 2.18 µM
TGI (RXF 393 renal): 4.36 µM
GI50 (HL-60(TB) leukemia): 2.69 µM
TGI (HL-60(TB) leukemia): 6.43 µM
GI50 (UACC-62 melanoma): 2.71 µM
TGI (UACC-62 melanoma): 5.06 µM

Nc1nc(Cl)cc(NCCO)n1
TGI (OVCAR-8 ovarian): > 100 µM
TGI (786-0 renal): > 100 µM
TGI (BT-549 breast): > 100 µM
TGI (OVCAR-3 ovarian): > 100 µM
TGI (NCI-H460 lung): > 100 µM
TGI (HT29 colon): > 100 µM
TGI (HOP-62 NSCLC): > 100 µM
TGI (RXF 393 renal): > 100 µM
TGI (UACC-62 melanoma): > 100 µM
